Assay results published in US20160122307A1, “PERHYDROQUINOXALINE DERIVATIVES” (DR. AUGUST WOLFF GMBH & CO. KG ARZNEIMITTEL, priority 2013, published 2016).
Where two headings read alike, the source gives them in different places.

Molecular target: Human opiate κ receptors (Homo sapiens, UniProt P41145)
Assay: κ opioid receptor functional assay, [35S]GTPγS binding (assay C)
Type: biochemical
Conditions: for activation at 1 µM: 0.5 h, read-out: % activation functional assay at 1 μM

Human opiate κ receptors, sequence (P41145 whole entry): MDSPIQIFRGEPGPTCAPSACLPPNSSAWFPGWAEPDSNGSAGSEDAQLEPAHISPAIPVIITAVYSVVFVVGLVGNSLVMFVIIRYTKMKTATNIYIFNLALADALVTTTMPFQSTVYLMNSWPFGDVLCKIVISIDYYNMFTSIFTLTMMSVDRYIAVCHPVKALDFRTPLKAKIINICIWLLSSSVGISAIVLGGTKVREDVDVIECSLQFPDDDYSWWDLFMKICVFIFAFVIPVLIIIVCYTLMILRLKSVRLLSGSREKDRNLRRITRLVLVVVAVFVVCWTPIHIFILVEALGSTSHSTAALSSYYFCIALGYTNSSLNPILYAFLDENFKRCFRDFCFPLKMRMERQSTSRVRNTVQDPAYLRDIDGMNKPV

Row | SMILES | activation at 1 µM | EC50 (GTPγS EC50 (nM)) | further results
1 | O=C(Cc1ccc(Cl)c(Cl)c1)N1CCN(Cc2cccnc2)C2CCCC(N3CCC(O)C3)C21 (mixture of isomers) [AC, reference compound] | – | – | activation (% of control) at 1 μM: 102 % of control; EC50 (EC50 (nM) [35S]GTPγS binding): 77 nM
2 | O=C(O)CC(=O)N1CCN(C(=O)Cc2ccc(Cl)c(Cl)c2)C2C(N3CCC(O)C3)CCCC21 (mixture of isomers) [T, reference compound] | – | – | activation (% of control) at 1 μM: 11 % of control; activation of the kappa opioid receptors at 1 μM: no or little activation; EC50 (EC50 (nM) [35S]GTPγS binding): > 1000 nM
3 | O=C(O)CC(=O)N1CCN(C(=O)Cc2ccc(Cl)c(Cl)c2)C2C(N3CCCC3)CCCC21 (racemic) [AD, reference compound] | – | – | activation (% of control) at 1 μM: 22 % of control; activation of the kappa opioid receptors at 1 μM: no or little activation; EC50 (read-out: EC50 (nM) [35S]GTPγS binding): > 1000 nM; EC50 (read-out: EC50 kappa opioid receptor activation): > 1000 nM
4 | O=C(O)CCC(=O)N1CCN(C(=O)Cc2ccc(Cl)c(Cl)c2)[C@H]2[C@H]1CCC[C@@H]2N1CCCC1 (racemic) [AE, reference compound] | – | – | activation (% of control) at 1 μM: 43 % of control; activation of the kappa opioid receptors at 1 μM: no or little activation; EC50 (EC50 (nM) [35S]GTPγS binding): > 1000 nM
5 | COC(=O)N1CCN(C(=O)Cc2ccc(Cl)c(Cl)c2)[C@@H]2[C@@H](N3CCCC3)CCC[C@@H]21 (racemic) [Example 1] | 109% | – | activation (% of control) at 1 μM: 109 % of control
6 | COC(=O)N1CCN(C(=O)Cc2cccc([N+](=O)[O-])c2)C2C(N3CCCC3)CCCC21 (racemic) [Example 3] | 105% | 10 to 100 nM | –
7 | COC(=O)N1CCN(C(=O)Cc2ccc(C(F)(F)F)cc2)C2C(N3CCCC3)CCCC21 (racemic) [Example 5] | 105% | < 10 nM | –
8 | COC(=O)N1CCN(C(=O)Cc2ccc3c(c2)CCCC3)C2C(N3CCCC3)CCCC21 (racemic) [Example 6] | 97% | 10 to 100 nM | –
9 | COC(=O)N1CCN(C(=O)Cc2cc(Cl)c3c(c2)OCCO3)C2C(N3CCCC3)CCCC21 (racemic) [Example 7] | 101% | 10 to 100 nM | –
10 | COC(=O)N1CCN(C(=O)Cc2ccc(Cl)s2)C2C(N3CCCC3)CCCC21 (racemic) [Example 8] | 97% | 10 to 100 nM | –
11 | COC(=O)N1CCN(C(=O)Cc2ccc3ccccc3c2)C2C(N3CCCC3)CCCC21 (racemic) [Example 10] | 100% | 10 to 100 nM | –
12 | COC(=O)N1CCN(C(=O)Cc2ccc(Cl)c(Cl)c2)C2C(N3CC=CCC3)CCCC21 (racemic) [Example 12] | 96% | 10 to 100 nM | –
13 | COC(=O)N1CCN(C(=O)Cc2ccc(Cl)c(Cl)c2)C2C1CCCC2N(C)C(C)C (racemic) [Example 13] | 98% | < 10 nM | –
14 | COC(=O)N1CCN(C(=O)Cc2ccc(C(F)(F)F)cc2)C2C1CCCC2N(C)C(C)C (racemic) [Example 14] | 104% | < 10 nM | –
15 | O=C(Cc1ccc(Cl)c(Cl)c1)N1CCN(Cc2ccccc2)[C@H]2CCC[C@H](N3CCCC3)[C@H]21 (racemic) [Example 15] | 89% | < 10 nM | activation (% of control) at 1 μM: 89 % of control; EC50 (EC50 (nM) [35S]GTPγS binding): 7.39 nM
16 | O=C(Cc1ccc(Cl)c(Cl)c1)N1CCN(C(=O)OCc2ccccc2)[C@H]2CCC[C@H](N3CCCC3)[C@H]21 (racemic) [Example 16] | 102% | < 10 nM | –
17 | COC(=O)N1CCN(C(=O)Cc2ccc(F)c(F)c2)C2C(N3CCCC3)CCCC21 (racemic) [Example 18] | 112% | < 10 nM | –
18 | COC(=O)N1CCN(C(=O)Cc2ccc(Cl)c(F)c2)C2C(N3CCCC3)CCCC21 (racemic) [Example 19] | 100% | < 10 nM | –
19 | COC(=O)N1CCN(C(=O)Cc2ccc(F)c(Cl)c2)C2C(N3CCCC3)CCCC21 (racemic) [Example 20] | 96% | < 10 nM | –
20 | COC(=O)N1CCN(C(=O)Cc2ccc(F)c(OC)c2)C2C(N3CCCC3)CCCC21 (racemic) [Example 21] | 103% | 10 to 100 nM | –
21 | COC(=O)N1CCN(C(=O)Cc2ccc(OC)c(F)c2)C2C(N3CCCC3)CCCC21 (racemic) [Example 22] | 78% | 100 to 1000 nM | –
22 | CS(=O)(=O)N1CCN(C(=O)Cc2ccc(Cl)c(Cl)c2)C2C(N3CCCC3)CCCC21 (racemic) [Example 23] | 91% | < 10 nM | –
23 | CC(C)(C)OC(=O)N1CCN(C(=O)Cc2ccc(Cl)c(Cl)c2)[C@@H]2[C@@H](N3CCCC3)CCC[C@@H]21 (racemic) [Example 24] | 105% | < 10 nM | –
24 | CCC(=O)N1CCN(C(=O)Cc2ccc(Cl)c(Cl)c2)C2C(N3CCCC3)CCCC21 (racemic) [Example 25] | 102% | < 10 nM | activation (% of control) at 1 μM: 102 % of control; EC50 (EC50 (nM) [35S]GTPγS binding): 2.55 nM
25 | CC(C)C(=O)N1CCN(C(=O)Cc2ccc(Cl)c(Cl)c2)C2C(N3CCCC3)CCCC21 (racemic) [Example 26] | 119% | < 10 nM | –
26 | O=C(C1CCC1)N1CCN(C(=O)Cc2ccc(Cl)c(Cl)c2)C2C(N3CCCC3)CCCC21 (racemic) [Example 27] | 103% | < 10 nM | –

Row | SMILES | activation at 1 µM | EC50 (GTPγS EC50 (nM)) | further results
27 | O=C(C1CC1)N1CCN(C(=O)Cc2ccc(Cl)c(Cl)c2)C2C(N3CCCC3)CCCC21 (racemic) [Example 28] | 111% | < 10 nM | –
28 | O=C(c1ccco1)N1CCN(C(=O)Cc2ccc(Cl)c(Cl)c2)C2C(N3CCCC3)CCCC21 (racemic) [Example 29] | 96% | – | –
29 | O=C(c1cccs1)N1CCN(C(=O)Cc2ccc(Cl)c(Cl)c2)C2C(N3CCCC3)CCCC21 (racemic) [Example 30] | 110% | – | –
30 | O=C(c1ccccc1)N1CCN(C(=O)Cc2ccc(Cl)c(Cl)c2)C2C(N3CCCC3)CCCC21 (racemic) [Example 31] | 93% | – | activation (% of control) at 1 μM: 93 % of control
31 | O=C(c1ccccn1)N1CCN(C(=O)Cc2ccc(Cl)c(Cl)c2)C2C(N3CCCC3)CCCC21 (racemic) [Example 32] | 88% | – | –
32 | CN(C)C(=O)N1CCN(C(=O)Cc2ccc(Cl)c(Cl)c2)C2C(N3CCCC3)CCCC21 (racemic) [Example 34] | 107% | 10 to 100 nM | –
33 | CN(C)S(=O)(=O)N1CCN(C(=O)Cc2ccc(Cl)c(Cl)c2)C2C(N3CCCC3)CCCC21 (racemic) [Example 35] | 108% | < 10 nM | –
34 | COC(=O)CC(=O)N1CCN(C(=O)Cc2ccc(Cl)c(Cl)c2)C2C(N3CCCC3)CCCC21 (racemic) [Example 36] | 93% | < 10 nM | activation (% of control) at 1 μM: 93 % of control; EC50 (EC50 (nM) [35S]GTPγS binding): 9.74 nM
35 | O=C(O)CC(=O)N1CCN(C(=O)Cc2ccc(Cl)c(Cl)c2)C2C(N3CCCC3)CCCC21 (racemic) [Example 37] | 87% | 10 to 100 nM | activation (% of control) at 1 μM: 87 % of control; EC50 (EC50 kappa opioid receptor activation): 22 nM
36 | O=C(N1CCCC1)N1CCN(C(=O)Cc2ccc(Cl)c(Cl)c2)C2C(N3CCCC3)CCCC21 (racemic) [Example 38] | 109% | 10 to 100 nM | –
37 | CCNC(=O)N1CCN(C(=O)Cc2ccc(Cl)c(Cl)c2)C2C(N3CCCC3)CCCC21 (racemic) [Example 40] | 96% | < 10 nM | –
38 | CC(C)NC(=O)N1CCN(C(=O)Cc2ccc(Cl)c(Cl)c2)C2C(N3CCCC3)CCCC21 (racemic) [Example 42] | 96% | < 10 nM | –
39 | O=C(Nc1ccccc1)N1CCN(C(=O)Cc2ccc(Cl)c(Cl)c2)C2C(N3CCCC3)CCCC21 (racemic) [Example 43] | 107% | < 10 nM | –
40 | CCN(C)C1CCCC2C1N(C(=O)Cc1ccc(Cl)c(Cl)c1)CCN2C(=O)OC (racemic) [Example 45] | 91% | < 10 nM | –
41 | COC(=O)N1CCN(C(=O)Cc2cccc(Cl)c2)C2C(N3CCCC3)CCCC21 (racemic) [Example 46] | 96% | < 10 nM | –
42 | COC(=O)N1CCN(C(=O)Cc2ccc(Cl)cc2)C2C(N3CCCC3)CCCC21 (racemic) [Example 47] | 101% | < 10 nM | –
43 | O=C(Cc1ccc(Cl)c(Cl)c1)N1CCN(Cc2cccnc2)C2CCCC(N3CCCC3)C21 (racemic) [Example 48] | 100% | < 10 nM | activation (% of control) at 1 μM: 100 % of control; EC50 (EC50 (nM) [35S]GTPγS binding): 4.99 nM
44 | O=C(Cc1ccc(Cl)c(Cl)c1)N1CCN(Cc2cnc[nH]2)C2CCCC(N3CCCC3)C21 (racemic) [Example 49] | 112% | < 10 nM | activation (% of control) at 1 μM: 112 % of control; EC50 (EC50 (nM) [35S]GTPγS binding): 6.65 nM
45 | COC(=O)N1CCN(C(=O)Cc2ccc(C(F)(F)F)c(Cl)c2)C2C(N3CCCC3)CCCC21 (racemic) [Example 50] | 118% | < 10 nM | –
46 | O=C(C1CCCC1)N1CCN(C(=O)Cc2ccc(Cl)c(Cl)c2)C2C(N3CCCC3)CCCC21 (racemic) [Example 51] | 97% | < 10 nM | –
47 | O=C(C1COC1)N1CCN(C(=O)Cc2ccc(Cl)c(Cl)c2)C2C(N3CCCC3)CCCC21 (racemic) [Example 54] | 104% | 10 to 100 nM | –
48 | CC(=O)OCC(=O)N1CCN(C(=O)Cc2ccc(Cl)c(Cl)c2)C2C(N3CCCC3)CCCC21 (racemic) [Example 58] | 96% | 10 to 100 nM | –
49 | O=C(CO)N1CCN(C(=O)Cc2ccc(Cl)c(Cl)c2)C2C(N3CCCC3)CCCC21 (racemic) [Example 59] | 109% | 10 to 100 nM | –
50 | CNC(=O)N1CCN(C(=O)Cc2ccc(Cl)c(Cl)c2)C2C(N3CCCC3)CCCC21 (racemic) [Example 62] | 104% | 10 to 100 nM | –
51 | COC(=O)C(=O)N1CCN(C(=O)Cc2ccc(Cl)c(Cl)c2)C2C(N3CCCC3)CCCC21 (racemic) [Example 65] | 104% | < 10 nM | –
52 | NC(=O)C(=O)N1CCN(C(=O)Cc2ccc(Cl)c(Cl)c2)C2C(N3CCCC3)CCCC21 (racemic) [Example 66] | 100% | 10 to 100 nM | –
